From US10875875B2, “Propionic acid derivatives and methods of use thereof” (Aviara Pharmaceuticals, Inc., priority 2017, dated 2020)

Each molecule was assayed against α4β1 (Homo sapiens, UniProt P05556+P13612) (assay: α4β1 integrin inhibition, IC50). Conditions: read-out: α4β1 IC50.
Format: binding

Sequence of α4β1 (P13612 34-1032): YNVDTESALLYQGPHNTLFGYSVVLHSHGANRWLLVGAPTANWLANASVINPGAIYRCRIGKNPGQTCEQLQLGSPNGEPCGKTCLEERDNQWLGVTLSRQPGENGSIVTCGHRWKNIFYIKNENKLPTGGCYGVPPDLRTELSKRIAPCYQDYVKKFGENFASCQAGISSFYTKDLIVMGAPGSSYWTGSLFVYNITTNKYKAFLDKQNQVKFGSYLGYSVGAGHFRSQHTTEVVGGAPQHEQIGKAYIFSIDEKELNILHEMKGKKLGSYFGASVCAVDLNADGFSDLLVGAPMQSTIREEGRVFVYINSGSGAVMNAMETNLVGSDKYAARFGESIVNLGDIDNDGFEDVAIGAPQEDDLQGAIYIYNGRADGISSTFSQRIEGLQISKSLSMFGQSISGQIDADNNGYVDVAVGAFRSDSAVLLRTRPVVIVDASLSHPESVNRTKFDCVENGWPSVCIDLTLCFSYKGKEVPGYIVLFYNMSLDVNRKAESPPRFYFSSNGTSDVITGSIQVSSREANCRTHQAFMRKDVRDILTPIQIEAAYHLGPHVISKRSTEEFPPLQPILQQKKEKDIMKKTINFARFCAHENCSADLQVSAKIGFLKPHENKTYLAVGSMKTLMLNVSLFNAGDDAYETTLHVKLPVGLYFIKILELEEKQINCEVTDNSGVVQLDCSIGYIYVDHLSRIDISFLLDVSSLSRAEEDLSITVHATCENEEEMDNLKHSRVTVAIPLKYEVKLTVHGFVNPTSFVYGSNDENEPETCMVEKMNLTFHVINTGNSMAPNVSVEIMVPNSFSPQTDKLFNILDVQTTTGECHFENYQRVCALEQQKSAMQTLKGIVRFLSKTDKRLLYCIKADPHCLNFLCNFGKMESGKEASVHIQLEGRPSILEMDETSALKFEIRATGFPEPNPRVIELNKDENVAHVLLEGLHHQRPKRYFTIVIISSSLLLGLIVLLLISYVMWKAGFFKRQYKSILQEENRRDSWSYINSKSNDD
Sequence of α4β1 (P05556 21-798): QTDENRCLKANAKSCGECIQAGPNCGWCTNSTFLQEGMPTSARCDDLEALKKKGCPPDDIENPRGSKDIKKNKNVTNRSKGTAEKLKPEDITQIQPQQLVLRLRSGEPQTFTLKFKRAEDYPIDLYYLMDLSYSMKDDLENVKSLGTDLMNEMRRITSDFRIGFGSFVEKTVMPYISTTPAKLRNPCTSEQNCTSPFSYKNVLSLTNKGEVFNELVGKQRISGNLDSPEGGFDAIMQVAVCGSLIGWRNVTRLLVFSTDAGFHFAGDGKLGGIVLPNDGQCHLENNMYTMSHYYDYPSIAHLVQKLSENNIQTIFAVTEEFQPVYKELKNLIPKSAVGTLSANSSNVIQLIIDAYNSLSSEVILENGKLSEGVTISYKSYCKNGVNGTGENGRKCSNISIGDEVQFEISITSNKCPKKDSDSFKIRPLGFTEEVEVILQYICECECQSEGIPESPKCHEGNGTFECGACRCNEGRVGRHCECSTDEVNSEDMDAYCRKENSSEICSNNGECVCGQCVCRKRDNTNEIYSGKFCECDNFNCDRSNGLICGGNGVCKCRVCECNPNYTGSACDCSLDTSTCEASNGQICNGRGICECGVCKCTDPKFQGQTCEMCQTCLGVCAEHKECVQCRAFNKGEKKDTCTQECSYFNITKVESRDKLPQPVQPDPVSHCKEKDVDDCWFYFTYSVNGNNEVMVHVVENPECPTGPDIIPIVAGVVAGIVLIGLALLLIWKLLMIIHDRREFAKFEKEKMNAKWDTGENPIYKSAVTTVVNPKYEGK

Row | SMILES | IC50
1 | Cc1cn(C)c(=O)c(NC(=O)N[C@@H](CC(=O)O)c2ccc(-c3ccccc3)s2)c1O [1-628, sodium (S)-3-(3-(1,5-dimethyl-4-oxido-2-oxo-1,2-dihydropyridin-3-yl)ureido)-3-(5-phenylthiophen-2-yl)propanoate] | < 200 nM
2 | CCn1cc(C)c(O)c(NC(=O)N[C@@H](CC(=O)O)c2cccc(-c3ccc(C)cc3)c2)c1=O [1-444, sodium (S)-3-(3-(1-ethyl-5-methyl-4-oxido-2-oxo-1,2-dihydropyridin-3-yl)ureido)-3-(4′-methylbiphenyl-3-yl)propanoate] | < 200 nM
3 | Cc1cn(C)c(=O)c(NC(=O)NC(CC(=O)O)c2cccc(-c3ccc(Cl)cc3)c2)c1O (centres unmarked) [1-471, sodium 3-(4′-chlorobiphenyl-3-yl)-3-(3-(1,5-dimethyl-4-oxido-2-oxo-1,2-dihydropyridin-3-yl)ureido)propanoate] | < 200 nM
4 | COc1ccc(OC)c(-c2cccc([C@H](CC(=O)O)NC(=O)Nc3c(O)c(C)cn(C)c3=O)c2)c1 [1-477, sodium (S)-3-(2′,5′-dimethoxybiphenyl-3-yl)-3-(3-(1,5-dimethyl-4-oxido-2-oxo-1,2-dihydropyridin-3-yl)ureido)propanoate] | < 200 nM
5 | COc1cccc(-c2cccc([C@H](CC(=O)O)NC(=O)Nc3c(O)c(C)cn(C)c3=O)c2)c1C [1-489, sodium (S)-3-(3-(1,5-dimethyl-4-oxido-2-oxo-1,2-dihydropyridin-3-yl)ureido)-3-(3′-methoxy-2′-methylbiphenyl-3-yl)propanoate] | < 200 nM
6 | COc1ccc(C)c(-c2cccc([C@H](CC(=O)O)NC(=O)Nc3c(O)c(C)cn(C)c3=O)c2)c1 [1-490, sodium (S)-3-(3-(1,5-dimethyl-4-oxido-2-oxo-1,2-dihydropyridin-3-yl)ureido)-3-(5′-methoxy-2′-methylbiphenyl-3-yl)propanoate] | < 200 nM
7 | Cc1cc(O)c(NC(=O)N[C@@H](CC(=O)O)c2cccc(-c3ccccc3)c2F)c(=O)n1C [1-610, sodium (S)-3-(3-(1,6-dimethyl-4-oxido-2-oxo-1,2-dihydropyridin-3-yl)ureido)-3-(2-fluorobiphenyl-3-yl)propanoate] | < 20 nM
8 | Cn1ccc(O)c(NC(=O)N[C@@H](CC(=O)O)c2cc(-c3ccc(F)cc3F)ccc2F)c1=O [1-591, sodium (S)-3-(3-(1-methyl-4-oxido-2-oxo-1,2-dihydropyridin-3-yl)ureido)-3-(2′,4,4′-trifluorobiphenyl-3-yl)propanoate] | < 20 nM
9 | CCn1cc(C)c(O)c(NC(=O)N[C@@H](CC(=O)O)c2cccc(-c3ccccc3C)c2)c1=O [1-443, sodium (S)-3-(3-(1-ethyl-5-methyl-4-oxido-2-oxo-1,2-dihydropyridin-3-yl)ureido)-3-(2′-methylbiphenyl-3-yl)propanoate] | < 200 nM
10 | COc1cccc(-c2cc(F)cc([C@H](CC(=O)O)NC(=O)Nc3c(O)cc(C)n(C)c3=O)c2)c1 [1-605, sodium (S)-3-(5-fluoro-3′-methoxybiphenyl-3-yl)-3-(3-(4-hydroxy-1,6-dimethyl-2-oxo-1,2-dihydropyridin-3-yl)ureido)propanoate] | < 20 nM
11 | COc1cc(-c2ccccc2)cc([C@H](CC(=O)O)NC(=O)Nc2c(O)ccn(C)c2=O)c1 [1-558, sodium (S)-3-(5-methoxybiphenyl-3-yl)-3-(3-(1-methyl-4-oxido-2-oxo-1,2-dihydropyridin-3-yl)ureido)propanoate] | < 20 nM
12 | Cc1cc(-c2ccc(F)cc2F)cc([C@H](CC(=O)O)NC(=O)Nc2c(O)cc(C)n(C)c2=O)c1 [1-575, sodium (S)-3-(2′,4′-difluoro-5-methylbiphenyl-3-yl)-3-(3-(1,6-dimethyl-4-oxido-2-oxo-1,2-dihydropyridin-3-yl)ureido)propanoate] | < 20 nM
13 | Cc1cn(C)c(=O)c(NC(=O)NC(CC(=O)O)c2cccc(-c3ccc(Cl)cc3Cl)c2)c1O (centres unmarked) [1-511, sodium 3-(2′,4′-dichlorobiphenyl-3-yl)-3-(3-(1,5-dimethyl-4-oxido-2-oxo-1,2-dihydropyridin-3-yl)ureido)propanoate] | < 200 nM
14 | Cc1cn(C)c(=O)c(NC(=O)N[C@@H](CC(=O)O)c2cccc(-c3ccccc3C(F)(F)F)c2)c1O [1-474, sodium (S)-3-(3-(1,5-dimethyl-4-oxido-2-oxo-1,2-dihydropyridin-3-yl)ureido)-3-(2′-(trifluoromethyl)biphenyl-3-yl)propanoate] | < 200 nM
15 | Cc1cn(C)c(=O)c(NC(=O)NC(CC(=O)O)c2cccc(-c3cc(Cl)c(F)cc3F)c2)c1O (centres unmarked) [1-503, sodium 3-(5′-chloro-2′,4′-difluorobiphenyl-3-yl)-3-(3-(1,5-dimethyl-4-oxido-2-oxo-1,2-dihydropyridin-3-yl)ureido)propanoate] | < 200 nM
16 | COc1ccc(-c2cccc([C@H](CC(=O)O)NC(=O)Nc3c(O)c(C)cn(C)c3=O)c2)cc1OC [1-469, sodium (S)-3-(3′,4′-dimethoxybiphenyl-3-yl)-3-(3-(1,5-dimethyl-4-oxido-2-oxo-1,2-dihydropyridin-3-yl)ureido)propanoate] | < 20 nM
17 | COc1cccc(-c2cc(OC)cc([C@H](CC(=O)O)NC(=O)Nc3c(O)cc(C)n(C)c3=O)c2)c1 [1-567, sodium (S)-3-(3′,5-dimethoxybiphenyl-3-yl)-3-(3-(1,6-dimethyl-4-oxido-2-oxo-1,2-dihydropyridin-3-yl)ureido)propanoate] | < 20 nM
18 | COc1ccc(-c2c(C)cccc2C)cc1[C@H](CC(=O)O)NC(=O)Nc1c(O)ccn(C)c1=O [1-602, sodium (S)-3-(4-methoxy-2′,6′-dimethylbiphenyl-3-yl)-3-(3-(1-methyl-4-oxido-2-oxo-1,2-dihydropyridin-3-yl)ureido)propanoate] | < 20 nM

Next, values leading:

Row | IC50 | SMILES
19 | < 20 nM | Cn1ccc(O)c(NC(=O)N[C@@H](CC(=O)O)c2cc(-c3cccc(OC(F)(F)F)c3)ccc2F)c1=O [1-594, sodium (S)-3-(4-fluoro-3′-(trifluoromethoxy)biphenyl-3-yl)-3-(3-(1-methyl-4-oxido-2-oxo-1,2-dihydropyridin-3-yl)ureido)propanoate]
20 | < 20 nM | Cc1cn(C)c(=O)c(NC(=O)N[C@@H](CC(=O)O)c2cccc(-c3cc(F)ccc3F)c2)c1O [1-447, sodium (S)-3-(2′,5′-difluorobiphenyl-3-yl)-3-(3-(1,5-dimethyl-4-oxido-2-oxo-1,2-di hydropyridin-3-yl)ureido)propanoate]
21 | < 20 nM | Cn1ccc(O)c(NC(=O)N[C@@H](CC(=O)O)c2cc(-c3ccccc3)ccc2F)c1=O [1-570, sodium (S)-3-(4-fluorobiphenyl-3-yl)-3-(3-(1-methyl-4-oxido-2-oxo-1,2-dihydropyridin-3-yl)ureido)propanoate]
22 | < 20 nM | COc1ccc([C@H](CC(=O)O)NC(=O)Nc2c(O)ccn(C)c2=O)cc1-c1cccc(OC(F)(F)F)c1 [1-535, sodium (S)-3-(6-methoxy-3′-(trifluoromethoxy)biphenyl-3-yl)-3-(3-(1-methyl-4-oxido-2-oxo-1,2-dihydropyridin-3-yl)ureido)propanoate]
23 | < 20 nM | Cn1ccc(O)c(NC(=O)N[C@@H](CC(=O)O)c2cc(OC(F)(F)F)cc(-c3ccccc3)c2)c1=O [1-615, sodium (S)-3-(3-(1-methyl-4-oxido-2-oxo-1,2-dihydropyridin-3-yl)ureido)-3-(5-(trifluoromethoxy)biphenyl-3-yl)propanoate]
24 | < 20 nM | COc1cccc(-c2cc([C@H](CC(=O)O)NC(=O)Nc3c(O)cc(C)n(C)c3=O)ccc2OC(F)(F)F)c1 [1-635, sodium (S)-3-(3-(1,6-dimethyl-4-oxido-2-oxo-1,2-dihydropyridin-3-yl)ureido)-3-(3′-methoxy-6-(trifluoromethoxy)biphenyl-3-yl)propanoate]
25 | < 20 nM | COc1cccc(-c2cccc([C@H](CC(=O)O)NC(=O)Nc3c(O)cc(C)n(C)c3=O)c2)c1 [1-553, sodium (S)-3-(3-(1,6-dimethyl-4-oxido-2-oxo-1,2-dihydropyridin-3-yl)ureido)-3-(3′-methoxybiphenyl-3-yl)propanoate]
26 | < 20 nM | Cc1cc(O)c(NC(=O)N[C@@H](CC(=O)O)c2cc(-c3cccc(OC(F)(F)F)c3)ccc2F)c(=O)n1C [1-595, sodium (S)-3-(3-(1,6-dimethyl-4-oxido-2-oxo-1,2-dihydropyridin-3-yl)ureido)-3-(4-fluoro-3′-(trifluoromethoxy)biphenyl-3-yl)propanoate]
27 | < 20 nM | CCn1ccc(O)c(NC(=O)N[C@@H](CC(=O)O)c2cccc(-c3ccc(F)cc3F)c2)c1=O [1-531, sodium (S)-3-(2′,4′-difluorobiphenyl-3-yl)-3-(3-(1-ethyl-4-oxido-2-oxo-1,2-dihydropyridin-3-yl)ureido)propanoate]
28 | < 20 nM | Cn1ccc(O)c(NC(=O)N[C@@H](CC(=O)O)c2ccc(F)c(-c3c(F)cccc3F)c2)c1=O [1-546, sodium (S)-3-(3-(1-methyl-4-oxido-2-oxo-1,2-dihydropyridin-3-yl)ureido)-3-(2′,6,6′-trifluorobiphenyl-3-yl)propanoate]
29 | < 20 nM | COc1cccc(-c2cc([C@H](CC(=O)O)NC(=O)Nc3c(O)ccn(C)c3=O)ccc2C)c1 [1-542, sodium (S)-3-(3′-methoxy-6-methylbiphenyl-3-yl)-3-(3-(1-methyl-4-oxido-2-oxo-1,2-dihydropyridin-3-yl)ureido)propanoate]
30 | < 20 nM | Cc1cn(C)c(=O)c(NC(=O)N[C@@H](CC(=O)O)c2cccc(-c3cc(F)cc(F)c3)c2)c1O [1-453, sodium (S)-3-(3′,5′-difluorobiphenyl-3-yl)-3-(3-(1,5-dimethyl-4-oxido-2-oxo-1,2-di hydropyridin-3-yl)ureido)propanoate]
31 | < 20 nM | Cn1c2c(c(O)c(NC(=O)N[C@@H](CC(=O)O)c3cccc(-c4ccc(F)cc4F)c3)c1=O)CCC2 [1-513, sodium (S)-3-(2′,4′-difluorobiphenyl-3-yl)-3-(3-(1-methyl-4-oxido-2-oxo-2,5,6,7-tetrahydro-1H-cyclopenta[b]pyridin-3-yl)ureido)propanoate]
32 | < 20 nM | Cc1ccccc1-c1cc([C@H](CC(=O)O)NC(=O)Nc2c(O)ccn(C)c2=O)ccc1OC(F)(F)F [1-624, sodium (S)-3-(3-(1-methyl-4-oxido-2-oxo-1,2-dihydropyridin-3-yl)ureido)-3-(2′-methyl-6-(trifluoromethoxy)biphenyl-3-yl)propanoate]
